The text below walks through data of ChEMBL document CHEMBL1649310, “Complete nucleotide sequence of Klebsiella pneumoniae multidrug resistance plasmid pKP048, carrying blaKPC-2, blaDHA-1, qnrB4, and armA” (2010).

≈ marks a conversion by molar mass, not a printed value. Where only a bound is given, the exact number is not on record here.

Type in all cases: functional
Assay [1] concerns Escherichia coli. Put plainly: Antimicrobial activity against Escherichia coli isolate CKP048 transconjugant harboring beta-lactamase KPC-2, DHA-1, qnrB4 and armA by Etest.
In assay [2] the test system is Klebsiella pneumoniae. Put plainly: Antimicrobial activity against Klebsiella pneumoniae isolate 048 expressing beta-lactamase KPC-2, DHA-1, qnrB4 and armA by Etest.
The test system of assay [3] is Escherichia coli. Put plainly: Antimicrobial activity against lacZ-negative, Nalidixic acid-, rifampicin-resistant Escherichia coli EC600 by Etest.
Assay [4] has as its system Escherichia coli. Put plainly: Antimicrobial activity against Escherichia coli isolate CKP048 transconjugant harboring beta-lactamase KPC-2, DHA-1, qnrB4 and armA by Etest in presence of beta-lactamase inhibitor Tazobactam.
Assay [5] deals with Klebsiella pneumoniae. The assay is described as follows: Antimicrobial activity against Klebsiella pneumoniae isolate 048 expressing beta-lactamase KPC-2, DHA-1, qnrB4 and armA by Etest in presence of beta-lactamase inhibitor Tazobactam.
Assay [6] has as its system Escherichia coli. Put plainly: Antimicrobial activity against lacZ-negative, Nalidixic acid-, rifampicin-resistant Escherichia coli EC600 by Etest in presence of beta-lactamase inhibitor Tazobactam.

A word on the MIC: it is the smallest concentration in the dilution series that meets the test's criterion for growth inhibition. `C[C@@H](O)[C@H]1C(=O)N2C(C(=O)O)=C(S[C@@H]3CN[C@H](C(=O)Nc4cccc(C(=O)O)c4)C3)[C@H](C)[C@H]12`: the results for the MIC in assay [1], in assay [2] and in assay [3] were 8 µg/mL (≈ 16.8 µM), 32 µg/mL (≈ 67.3 µM) and 0.016 µg/mL (≈ 0.0336 µM), respectively.

`NCC[C@H](O)C(=O)N[C@@H]1C[C@H](N)[C@@H](O[C@H]2O[C@H](CN)[C@@H](O)[C@H](O)[C@H]2O)[C@H](O)[C@H]1O[C@H]1O[C@H](CO)[C@@H](O)[C@H](N)[C@H]1O` [AMIKACIN]: the MIC in assay [1] was greater than 256 µg/mL; in assay [2], greater than 256 µg/mL; in assay [3] it was 1 µg/mL (≈ 1.71 µM).

In the case of `CO[C@@]1(NC(=O)Cc2cccs2)C(=O)N2C(C(=O)O)=C(COC(N)=O)CS[C@@H]21` [CEFOXITIN], the MIC in assay [1] was 128 µg/mL (≈ 299 µM); in assay [2], 256 µg/mL (≈ 599 µM); in assay [3], 2 µg/mL (≈ 4.68 µM).

Turning to `CC(C)(O/N=C(\C(=O)N[C@@H]1C(=O)N2C(C(=O)[O-])=C(C[n+]3ccccc3)CS[C@H]12)c1csc(N)n1)C(=O)O` [CEFTAZIDIME], the MIC in assay [1] was 32 µg/mL (≈ 58.5 µM); in assay [2], 96 µg/mL (≈ 176 µM); in assay [3], 0.064 µg/mL (≈ 0.117 µM).

Take `C[C@@H](O)[C@H]1C(=O)N2C(C(=O)O)=C(SCCNC=N)C[C@H]12` [IMIPENEM ANHYDROUS]: the MIC was 3 µg/mL (≈ 10 µM) in assay [1], greater than 32 µg/mL in assay [2] and 0.25 µg/mL (≈ 0.835 µM) in assay [3].

Turning to `C[C@@H](O)[C@H]1C(=O)N2C(C(=O)O)=C(S[C@@H]3CN[C@H](C(=O)N(C)C)C3)[C@H](C)[C@H]12` [MEROPENEM], the MIC is 2 µg/mL (≈ 5.22 µM) in assay [1], greater than 32 µg/mL in assay [2] and 0.094 µg/mL (≈ 0.245 µM) in assay [3].

As to `CCN1CCN(C(=O)N[C@@H](C(=O)N[C@@H]2C(=O)N3[C@@H]2SC(C)(C)[C@@H]3C(=O)O)c2ccccc2)C(=O)C1=O` [PIPERACILLIN], the results for the MIC in assay [4], in assay [5] and in assay [6] were greater than 256 µg/mL, greater than 256 µg/mL and 2 µg/mL, respectively.

On to `CN(C)c1cc(NC(=O)CNC(C)(C)C)c(O)c2c1C[C@H]1C[C@H]3[C@H](N(C)C)C(O)=C(C(N)=O)C(=O)[C@@]3(O)C(O)=C1C2=O` [TIGECYCLINE], for which the MIC in assay [1] came to 0.125 µg/mL (≈ 0.213 µM); in assay [2], 0.38 µg/mL (≈ 0.649 µM); in assay [3], 0.125 µg/mL (≈ 0.213 µM).

As for COLISTIN, the figures for the MIC in assay [1], in assay [2] and in assay [3] were 0.38 µg/mL, 0.38 µg/mL and 0.25 µg/mL, respectively.
